# Experimental data: patent US20210101905A1, “Development of Imaging and Therapeutic Glucose Analogues for Sodium Dependent Glucose Transporters” (Llnited States Government as represented by the Department …, priority 2019, published 2021)
# Experiments:
# PC-3 = experiment: 6FGA uptake in PC-3 cells, with and without transporter inhibitors or sodium; assay type: cell-based, human; conditions: PC3 cell line
# Description: See FIG. 2A-D. Its transport properties were evaluated in two human metastatic cancer cell lines: triple negative breast cancer MDA-MB-231 and human prostate cancer (PC-3). […] See also FIG. 5A, FIG. 5B, and FIG. 6.
# The assays are performed from a modified protocol as we have done previously, and from flow cytometry formats (Zou ry al. (2005) J Biochem Biophys Methods 64:207-15; Landau et al. (2007) American journal of physiology Endocrinology and metabolism 293:E237-45). In brief, cells are grown to confluence using recommended growth media in 96-well plates. […] The cells are detached with trypsin and resuspended in PBS. The cells are analysed using flow cytometry with the Cy5.5 filter set (excitation 685 nm, exmission 710 nm) gated for 250,000 counts.
# SGLTs and GLUTs = conditions: prior work; cited from earlier work
# [1] = rat, in vivo; cited from earlier work
# [2] = tested on: metastatic prostate cancer; conditions: men with metastatic prostate cancer, phase III; cited from earlier work
SMILES,effect of inhibitor on 6FGA uptake (PC-3),transport by SGLTs / GLUTs (SGLTs and GLUTs),other results
O=C(CCc1ccc(O)cc1)c1c(O)cc(O)cc1O[C@@H]1O[C@H](CO)[C@@H](O)[C@H](O)[C@H]1O [phlorizin],blocked,–,–
"O=C[C@H](O)[C@@H](O)[C@H](O)[C@H](O)C[18F] [[18F]6FDG, 18F-labelled 6-fluoro-6-deoxy-D-glucose]",–,transported by SGLTs and GLUTs,activity in the bladder [1]: no activity was evident in the bladder; renal handling [1]: reabsorbed in proximal tubules of kidneys
"OC[C@H]1OC(O)[C@H]([18F])[C@@H](O)[C@@H]1O (stereo partly drawn) [[^18F]FDG, ^18F-labeled 2-fluoro-2-deoxy-D-glucose]",–,poorly transported by SGLTs,–
"[Cl][223Ra][Cl] [Xofigo, ^223RaCl2]",–,–,adverse events [2]: low rates of myelosuppression and few adverse events; overall survival [2]: improve overall survival
C=C1[C@@H](C)[C@H]2[C@H](Cc3ccccc3)NC(=O)[C@]23OC(=O)/C=C/[C@H](O)CCC[C@@H](C)C/C=C/[C@H]3[C@@H]1O [cytochalasin B],not blocked,–,–
